Source: patent US12497663B2, “Method of monitoring treatment” (LDN Pharma Limited, priority 2019, dated 2025)

Key:
CD3+ cells = assay: Gene expression in CD3+ cells from CD14-ve PBMCs cultured with naltrexone (Illumina biochips); assay type: cell-based, human; settings: ratio treated:untreated, 4 h
Experimental: The RNA was then extracted from the cells using Trizol then isopropanol. The expression of the genes was measured using Illumina platform with biochips surveying the total human genome. […] The ratio of treated:untreated was calculated and the 25% change from untreated considered relevant.

[1] = system: CD3+/CD8+ cells (killer T-cells); assay: CD69 expression of PBMCs cultured with LDN or NTX (flow cytometry); assay type: cell-based; settings: 48 h
Experimental: Peripheral-blood mononuclear cells were isolated from whole blood or from the residue product of leukoreduction of whole blood from pathologically healthy donors using Histopaque-1077. The mononuclear fraction was harvested and red blood cell contamination removed by incubation in hypotonic ammonium chloride. Cells were washed in phosphate buffered saline (PBS) and platelet contamination removed by centrifugation at 200 g for 10 min, re-suspended at a concentration of 1×10^6 ml in RPMI-1640 culture medium. […] Peripheral-blood mononuclear cells were washed twice in wash buffer (PBS containing 1% (v/v) FBS and 0.09% (v/v) NaN3), and stained for 30 min at 4° C. with the relevant and stated antibodies for assessment of immune cell profile. Cells were washed in wash buffer and fixed in 4% paraformaldehyde for 20 min at 4° C. Expressions of the surface markers were analysed using a BD Science LSR II Flow Cytometer with dedicated proprietary software.
The activation state of CD3+ cells is indicated by CD69 expression; higher levels of CD69 expression correlate with increased CD3+ activation. CD3+ cells are T cell co-receptors that help to activate both the cytotoxic T cell (CD8+ naive T cells) and also T helper cells (CD4+ naive T cells). […] Thus, when LDN has completed its priming and the gene expressions are as determined in Example 1, the immune system is suitably boosted.

In the case of O=C1CC[C@@]2(O)[C@H]3Cc4ccc(O)c5c4[C@@]2(CCN3CC2CC2)[C@H]1O5 [NTX, morphinan-6-one,17-(cyclopropylmethyl)-4,5-epoxy-3,14-dihydroxy-(5a)], the “LSM5 LDN/UN” value (CD3+ cells; 10 nM naltrexone) is reported as 0.639, the “MAP4K1 LDN/UN” value (CD3+ cells; 10 nM naltrexone) is reported as 1.294 and the “MORF4L1 LDN/UN” value (CD3+ cells; 10 nM naltrexone) is reported as 0.698. The “MTF1 LDN/UN” value (CD3+ cells; 10 nM naltrexone) was 0.676, the “MYLK LDN/UN” value (CD3+ cells; 10 nM naltrexone) was 1.659 and the “NUCB1 LDN/UN” value (CD3+ cells; 10 nM naltrexone) was 1.483. For the same compound, the “OR10A6 LDN/UN” value (CD3+ cells; 10 nM naltrexone) was 1.570, the “PAH LDN/UN” value (CD3+ cells; 10 nM naltrexone) was 1.687 and the “PDCD4 LDN/UN” value (CD3+ cells; 10 nM naltrexone) was 0.672. For the same compound, the “PECI LDN/UN” value (CD3+ cells; 10 nM naltrexone) was 0.675, the “PRPF8 LDN/UN” value (CD3+ cells; 10 nM naltrexone) was 1.543 and the “PSME2 LDN/UN” value (CD3+ cells; 10 nM naltrexone) was 0.700. The “PVRL2 LDN/UN” value (CD3+ cells; 10 nM naltrexone) was 1.483, the “RASAL3 LDN/UN” value (CD3+ cells; 10 nM naltrexone) was 1.365 and the “S100A6 LDN/UN” value (CD3+ cells; 10 nM naltrexone) was 1.397. For the same compound, the “SH3BGRL3 LDN/UN” value (CD3+ cells; 10 nM naltrexone) was 1.479, the “SPOCK2 LDN/UN” value (CD3+ cells; 10 nM naltrexone) was 1.487 and the “WDR75 LDN/UN” value (CD3+ cells; 10 nM naltrexone) was 0.705. For the same compound, the “YWHAZ LDN/UN” value (CD3+ cells; 10 nM naltrexone) was 1.287, the “ACTB NTX/UN” value (CD3+ cells; 10 uM naltrexone) was 1.241 and the “ALDH4A1 NTX/UN” value (CD3+ cells; 10 uM naltrexone) was 1.184. The “ASAP1 NTX/UN” value (CD3+ cells; 10 uM naltrexone) was 0.826, the “BCLAF1 NTX/UN” value (CD3+ cells; 10 uM naltrexone) was 0.800 and the “BIRC3 NTX/UN” value (CD3+ cells; 10 uM naltrexone) was 0.918. The “CASZ1 NTX/UN” value (CD3+ cells; 10 uM naltrexone) was 1.130, the “CDC42SE2 NTX/UN” value (CD3+ cells; 10 uM naltrexone) was 0.796 and the “CDKN2AIP NTX/UN” value (CD3+ cells; 10 uM naltrexone) was 0.766. The “DRAP1 NTX/UN” value (CD3+ cells; 10 uM naltrexone) was 0.723, the “DYNLL2 NTX/UN” value (CD3+ cells; 10 uM naltrexone) was 0.865 and the “EIF2S3 NTX/UN” value (CD3+ cells; 10 uM naltrexone) was 0.756. For the same compound, the “EIF3E NTX/UN” value (CD3+ cells; 10 uM naltrexone) was 0.910, the “EIF3M NTX/UN” value (CD3+ cells; 10 uM naltrexone) was 0.757 and the “EIF4B NTX/UN” value (CD3+ cells; 10 uM naltrexone) was 1.123. The “EZR NTX/UN” value (CD3+ cells; 10 uM naltrexone) was 1.079, the “FRG1 NTX/UN” value (CD3+ cells; 10 uM naltrexone) was 0.773 and the “H3F3A NTX/UN” value (CD3+ cells; 10 uM naltrexone) was 0.758. For the same compound, the “HIST1H4C NTX/UN” value (CD3+ cells; 10 uM naltrexone) was 0.836, the “HPCAL1 NTX/UN” value (CD3+ cells; 10 uM naltrexone) was 0.849 and the “ITGB2 NTX/UN” value (CD3+ cells; 10 uM naltrexone) was 0.942. For the same compound, the “KCTD6 NTX/UN” value (CD3+ cells; 10 uM naltrexone) was 0.774, the “LSM5 NTX/UN” value (CD3+ cells; 10 uM naltrexone) was 0.839 and the “MAP4K1 NTX/UN” value (CD3+ cells; 10 uM naltrexone) was 0.726. For the same compound, the “MORF4L1 NTX/UN” value (CD3+ cells; 10 uM naltrexone) was 0.772, the “MTF1 NTX/UN” value (CD3+ cells; 10 uM naltrexone) was 0.771 and the “MYLK NTX/UN” value (CD3+ cells; 10 uM naltrexone) was 1.241. The “NUCB1 NTX/UN” value (CD3+ cells; 10 uM naltrexone) was 1.148, the “OR10A6 NTX/UN” value (CD3+ cells; 10 uM naltrexone) was 1.235 and the “PAH NTX/UN” value (CD3+ cells; 10 uM naltrexone) was 1.183. The “PDCD4 NTX/UN” value (CD3+ cells; 10 uM naltrexone) was 0.779, the “PECI NTX/UN” value (CD3+ cells; 10 uM naltrexone) was 1.043 and the “PRPF8 NTX/UN” value (CD3+ cells; 10 uM naltrexone) was 1.174. The “PSME2 NTX/UN” value (CD3+ cells; 10 uM naltrexone) was 0.877, the “PVRL2 NTX/UN” value (CD3+ cells; 10 uM naltrexone) was 1.102 and the “RASAL3 NTX/UN” value (CD3+ cells; 10 uM naltrexone) was 0.713. The “S100A6 NTX/UN” value (CD3+ cells; 10 uM naltrexone) was 0.655, the “SH3BGRL3 NTX/UN” value (CD3+ cells; 10 uM naltrexone) was 1.224 and the “SPOCK2 NTX/UN” value (CD3+ cells; 10 uM naltrexone) was 1.194. For the same compound, the “WDR75 NTX/UN” value (CD3+ cells; 10 uM naltrexone) was 0.830, the “YWHAZ NTX/UN” value (CD3+ cells; 10 uM naltrexone) was 0.736 and the “CD69 expression in CD3+/CD8+ cells” value ([1]; 10 nM naltrexone (LDN)) was “increased”. The “CD69 expression in CD3+/CD8+ cells” value ([1]; 10 uM naltrexone (NTX)) was “did not increase”.
